Calls of active or inactive are those of the source. No cut-off for these calls is given here.
Key:
Mus musculus = test: Reversal of 5-CT-induced hypothermic effect in po dosed mouse assessed as minimum effective dose; format: functional; conditions: for minimal effective dose: read-out: MED
[1] = biological target: 5-hydroxytryptamine receptor 7 (Homo sapiens, UniProt P34969); test: Displacement of [3H]5-HT from human 5-HT7 receptor expressed in CHO cells; format: cell-based
[2] = biological target: T1, 5-hydroxytryptamine receptor 2B (Homo sapiens, UniProt P41595); test: Displacement of [3H]mesulergine from human 5-HT2B receptor expressed in HEK293 cells; format: cell-based
T1 sequence (P41595 whole entry): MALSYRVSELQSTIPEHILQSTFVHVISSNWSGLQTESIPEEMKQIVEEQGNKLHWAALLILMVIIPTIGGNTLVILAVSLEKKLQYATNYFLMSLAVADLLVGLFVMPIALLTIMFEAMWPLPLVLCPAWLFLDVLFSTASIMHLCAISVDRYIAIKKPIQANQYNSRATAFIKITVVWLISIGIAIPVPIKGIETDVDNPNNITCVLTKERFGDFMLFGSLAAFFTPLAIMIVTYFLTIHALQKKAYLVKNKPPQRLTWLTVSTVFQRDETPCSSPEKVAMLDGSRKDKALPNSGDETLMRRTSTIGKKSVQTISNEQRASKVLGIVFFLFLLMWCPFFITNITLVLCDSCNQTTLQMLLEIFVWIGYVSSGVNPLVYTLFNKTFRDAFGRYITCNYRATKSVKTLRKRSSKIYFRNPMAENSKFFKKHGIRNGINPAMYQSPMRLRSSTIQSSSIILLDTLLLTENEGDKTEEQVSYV

Cavia porcellus [3] = test: Suppression of 5-HT-induced dural protein extravasation in po dosed Hartley guinea pig; format: functional, organism-based
Cavia porcellus [4] = test: Suppression of 5-HT-induced dural protein extravasation in Hartley guinea pig at 10 mg/kg, po; format: functional, organism-based; set-up: dose 10 mg/kg
[5] = biological target: T1, 5-hydroxytryptamine receptor 2B; test: Antagonist activity at human 5-HT2B receptor expressed in HEK293 cells assessed as [3H]PI metabolism; format: cell-based
D(2) dopamine receptor = D(2) dopamine receptor (Homo sapiens, UniProt P14416); test: Binding affinity to dopamine D2 receptor (unknown origin)
Chain of D(2) dopamine receptor (P14416 whole entry): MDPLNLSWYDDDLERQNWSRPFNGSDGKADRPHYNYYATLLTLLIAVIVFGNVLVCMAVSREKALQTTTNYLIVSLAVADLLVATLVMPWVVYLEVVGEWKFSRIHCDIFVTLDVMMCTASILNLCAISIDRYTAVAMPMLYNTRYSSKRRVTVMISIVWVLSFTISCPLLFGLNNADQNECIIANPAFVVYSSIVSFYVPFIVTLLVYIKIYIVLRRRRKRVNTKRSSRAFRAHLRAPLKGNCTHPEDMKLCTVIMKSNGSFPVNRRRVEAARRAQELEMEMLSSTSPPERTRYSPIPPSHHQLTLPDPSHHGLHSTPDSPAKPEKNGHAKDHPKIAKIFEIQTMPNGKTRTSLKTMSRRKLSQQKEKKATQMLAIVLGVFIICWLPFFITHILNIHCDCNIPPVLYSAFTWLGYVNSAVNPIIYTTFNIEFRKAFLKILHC

[6] = biological target: 5-hydroxytryptamine receptor 2A (Homo sapiens, UniProt P28223); test: Binding affinity to serotonin 5-HT2A receptor (unknown origin)
Chain of 5-hydroxytryptamine receptor 2A (P28223 whole entry): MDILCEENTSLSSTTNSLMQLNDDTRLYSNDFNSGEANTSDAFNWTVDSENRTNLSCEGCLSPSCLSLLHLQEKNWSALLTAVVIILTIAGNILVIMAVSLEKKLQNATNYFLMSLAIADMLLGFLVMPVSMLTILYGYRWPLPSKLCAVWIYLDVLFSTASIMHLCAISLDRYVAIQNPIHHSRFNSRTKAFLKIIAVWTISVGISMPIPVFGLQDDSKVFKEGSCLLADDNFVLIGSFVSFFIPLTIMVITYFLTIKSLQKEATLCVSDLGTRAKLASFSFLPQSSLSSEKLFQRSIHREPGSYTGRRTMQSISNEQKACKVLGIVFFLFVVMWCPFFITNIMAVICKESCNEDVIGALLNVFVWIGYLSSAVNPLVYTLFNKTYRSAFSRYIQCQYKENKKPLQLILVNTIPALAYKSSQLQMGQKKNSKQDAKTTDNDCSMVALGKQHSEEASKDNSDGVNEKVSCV

[7] = biological target: T2, Muscarinic acetylcholine receptor M5 (Homo sapiens, UniProt P08912); test: Binding affinity to muscarinic M5 receptor (unknown origin)
T2 sequence (P08912 whole entry): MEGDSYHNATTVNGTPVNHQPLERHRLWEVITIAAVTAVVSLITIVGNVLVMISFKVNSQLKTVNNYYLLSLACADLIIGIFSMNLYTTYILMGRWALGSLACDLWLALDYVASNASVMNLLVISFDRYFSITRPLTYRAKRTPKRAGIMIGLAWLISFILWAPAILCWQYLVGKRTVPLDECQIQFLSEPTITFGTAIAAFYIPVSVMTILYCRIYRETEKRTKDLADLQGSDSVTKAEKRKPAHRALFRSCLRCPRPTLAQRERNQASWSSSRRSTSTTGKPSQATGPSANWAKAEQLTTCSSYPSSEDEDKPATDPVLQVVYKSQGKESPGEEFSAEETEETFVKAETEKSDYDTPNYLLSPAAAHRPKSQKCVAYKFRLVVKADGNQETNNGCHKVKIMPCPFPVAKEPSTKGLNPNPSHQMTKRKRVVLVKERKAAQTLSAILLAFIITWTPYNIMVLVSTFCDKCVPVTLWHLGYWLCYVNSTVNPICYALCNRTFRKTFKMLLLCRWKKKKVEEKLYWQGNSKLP

[8] = biological target: T3, 5-hydroxytryptamine receptor 2C (Homo sapiens, UniProt P28335); test: Binding affinity to serotonin 5-HT2C receptor (unknown origin)
T3 sequence (P28335 whole entry): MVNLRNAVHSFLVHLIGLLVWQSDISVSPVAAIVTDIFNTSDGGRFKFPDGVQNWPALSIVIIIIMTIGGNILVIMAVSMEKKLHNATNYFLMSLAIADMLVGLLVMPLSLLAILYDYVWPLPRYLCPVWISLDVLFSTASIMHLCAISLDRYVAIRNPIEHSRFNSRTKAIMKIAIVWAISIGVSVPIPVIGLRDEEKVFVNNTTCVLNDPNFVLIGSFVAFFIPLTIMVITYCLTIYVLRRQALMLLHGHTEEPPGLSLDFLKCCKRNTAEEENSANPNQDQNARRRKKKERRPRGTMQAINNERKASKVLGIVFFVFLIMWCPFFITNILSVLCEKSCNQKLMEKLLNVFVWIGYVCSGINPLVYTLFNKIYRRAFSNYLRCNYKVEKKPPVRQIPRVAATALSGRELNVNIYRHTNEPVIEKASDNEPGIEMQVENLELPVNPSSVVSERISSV

[9] = biological target: T4, Adrenergic receptor alpha-1 (Homo sapiens, UniProt P35348+P25100+P35368); test: Binding affinity to alpha1-adrenergic receptor (unknown origin)
T4 sequence (P35348 whole entry): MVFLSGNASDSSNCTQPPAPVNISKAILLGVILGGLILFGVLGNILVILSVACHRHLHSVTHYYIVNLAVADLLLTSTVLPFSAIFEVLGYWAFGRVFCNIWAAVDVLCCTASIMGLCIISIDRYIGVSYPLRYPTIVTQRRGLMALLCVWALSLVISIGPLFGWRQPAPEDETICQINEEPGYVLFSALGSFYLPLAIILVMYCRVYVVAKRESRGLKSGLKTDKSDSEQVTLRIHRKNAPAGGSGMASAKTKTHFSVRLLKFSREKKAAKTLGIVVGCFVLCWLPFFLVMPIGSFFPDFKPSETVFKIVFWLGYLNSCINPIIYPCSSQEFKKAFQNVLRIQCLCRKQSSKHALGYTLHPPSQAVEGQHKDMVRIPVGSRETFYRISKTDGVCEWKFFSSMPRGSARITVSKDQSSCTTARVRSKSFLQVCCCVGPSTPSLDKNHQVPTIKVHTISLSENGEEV
T4 sequence (P25100 whole entry): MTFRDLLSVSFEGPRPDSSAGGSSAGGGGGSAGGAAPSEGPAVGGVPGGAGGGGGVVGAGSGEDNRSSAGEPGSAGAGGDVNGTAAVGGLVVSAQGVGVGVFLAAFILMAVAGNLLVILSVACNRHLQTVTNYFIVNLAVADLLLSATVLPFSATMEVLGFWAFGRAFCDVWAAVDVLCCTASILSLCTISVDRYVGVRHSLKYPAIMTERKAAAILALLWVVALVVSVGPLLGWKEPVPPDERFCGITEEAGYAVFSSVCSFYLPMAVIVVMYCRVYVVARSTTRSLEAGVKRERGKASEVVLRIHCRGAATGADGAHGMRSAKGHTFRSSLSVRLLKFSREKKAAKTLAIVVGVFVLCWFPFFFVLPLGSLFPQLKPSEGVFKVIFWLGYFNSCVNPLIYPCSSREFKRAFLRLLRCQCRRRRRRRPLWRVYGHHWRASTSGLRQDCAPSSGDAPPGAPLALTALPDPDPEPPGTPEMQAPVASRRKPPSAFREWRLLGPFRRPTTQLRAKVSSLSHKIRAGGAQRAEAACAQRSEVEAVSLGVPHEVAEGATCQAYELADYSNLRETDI
T4 sequence (P35368 whole entry): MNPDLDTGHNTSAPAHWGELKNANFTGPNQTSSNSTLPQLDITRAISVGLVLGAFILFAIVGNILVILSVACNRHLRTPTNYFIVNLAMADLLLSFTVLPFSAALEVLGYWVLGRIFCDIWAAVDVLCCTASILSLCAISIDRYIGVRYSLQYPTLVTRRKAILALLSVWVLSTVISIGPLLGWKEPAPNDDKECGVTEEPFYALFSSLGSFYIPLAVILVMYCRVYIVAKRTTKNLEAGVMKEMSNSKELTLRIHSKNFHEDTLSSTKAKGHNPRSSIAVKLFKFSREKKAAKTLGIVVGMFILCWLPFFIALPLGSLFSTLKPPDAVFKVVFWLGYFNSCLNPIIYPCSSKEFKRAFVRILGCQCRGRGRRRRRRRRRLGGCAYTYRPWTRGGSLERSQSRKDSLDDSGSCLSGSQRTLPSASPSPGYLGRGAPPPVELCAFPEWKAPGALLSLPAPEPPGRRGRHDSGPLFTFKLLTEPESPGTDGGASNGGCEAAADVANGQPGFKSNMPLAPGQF

Chain of 5-hydroxytryptamine receptor 7 (P34969 whole entry): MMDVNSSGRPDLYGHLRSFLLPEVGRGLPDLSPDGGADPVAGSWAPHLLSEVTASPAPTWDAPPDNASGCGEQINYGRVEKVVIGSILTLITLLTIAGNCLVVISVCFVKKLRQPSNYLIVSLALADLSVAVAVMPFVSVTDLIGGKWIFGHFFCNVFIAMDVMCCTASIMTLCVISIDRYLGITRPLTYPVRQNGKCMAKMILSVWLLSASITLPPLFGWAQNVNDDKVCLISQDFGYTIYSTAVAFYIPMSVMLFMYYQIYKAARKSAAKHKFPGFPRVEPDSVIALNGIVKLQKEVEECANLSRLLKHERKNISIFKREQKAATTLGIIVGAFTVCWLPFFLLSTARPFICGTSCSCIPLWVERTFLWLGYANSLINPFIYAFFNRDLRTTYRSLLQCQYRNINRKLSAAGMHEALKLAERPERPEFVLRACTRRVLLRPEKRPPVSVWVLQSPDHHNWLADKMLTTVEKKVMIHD

Ki [1] | Ki [2] | SMILES | minimal effective dose (Mus musculus) | other results
 |  | CC1(O)c2ccccc2-c2ccc(C(=O)N=C(N)N)cc21.Cl (stereo not drawn) | 30 mg/kg | 
> 100 nM | 31 nM | CCCCC1(O)c2ccccc2-c2ccc(C(=O)N=C(N)N)cc21 (stereo not drawn) |  | 
1.3 nM | 9.1 nM | NC(N)=NC(=O)c1ccc2c(c1)C1(CCOCC1)c1ccccc1-2 |  | 
0.6 nM | 4.8 nM | CCC1(OC)c2ccccc2-c2ccc(C(=O)N=C(N)N)cc21.Cl (stereo not drawn) | 10 mg/kg | 
1.4 nM | 3.3 nM | COC1(C)c2ccccc2-c2ccc(C(=O)N=C(N)N)cc21.Cl (stereo not drawn) | 30 mg/kg | 
1.2 nM | 41 nM | CCC1(O)c2ccccc2-c2ccc(C(=O)N=C(N)N)cc21 (stereo not drawn) |  | 
 | 2.7 nM | NC(N)=NC(=O)c1ccc2c(c1)[C@]1(CCCO1)c1ccccc1-2 |  | inhibition (Cavia porcellus [3]): Dose-dependent effect; inhibition (Cavia porcellus [4]): Active; IC50 [5]: 35 nM
 | 5.1 nM | NC(N)=NC(=O)c1ccc2c(c1)[C@@]1(CCCO1)c1ccccc1-2 |  | inhibition (Cavia porcellus [3]): Dose-dependent effect; inhibition (Cavia porcellus [4]): Active; IC50 [5]: 73 nM
 | 5.1 nM | Cl.NC(N)=NC(=O)c1ccc2c(c1)C1(CCCO1)c1ccccc1-2 (stereo not drawn) | 3 mg/kg | Ki (D(2) dopamine receptor): > 1000 nM; Ki [6]: > 1000 nM; IC50 [5]: 55 nM; Ki [7]: > 1000 nM; Ki [8]: 152 nM; Ki [9]: > 1000 nM
4.9 nM | 0.51 nM | NC(N)=NC(=O)c1ccc2c(c1)C1(CC1)c1ccccc1-2 |  | MED (Mus musculus): inactive
0.76 nM | 2 nM | COCC1(OC)c2ccccc2-c2ccc(C(=O)N=C(N)N)cc21.Cl (stereo not drawn) | > 30 mg/kg | 
1.8 nM | 1.7 nM | Cl.NC(N)=NC(=O)c1ccc2c(c1)C1(CCCC1)c1ccccc1-2 | ≤ 100 mg/kg | 

From ChEMBL document CHEMBL3351957, “Synthesis and pharmacological evaluation of optically pure, novel carbonyl guanidine derivatives as dual 5-HT2B and 5-HT7 receptor antagonists” (Bioorg Med Chem, 2014)
